Measured values: patent US20230323432A1, “ASSAY FOR DETECTING POINT MUTATIONS” (Bakotic Pathology Associates, LLC, priority 2022, published 2023)

Legend:
[1] = tested on: T rubrum (ATCC-22402); assay: Terbinafine susceptibility testing of isolates by culture on terbinafine-containing agar (CLSI M38-A3); details: wild type strain ATCC-22402
Protocol: (§1) The isolates are re-tested for terbinafine drug resistance by plating the isolates on the sabouraud dextrose agar (SDA)/Potato dextrose agar (PDA) plates containing different concentration of terbinafine. Reagent-grade terbinafine (TRB) were obtained in the powder form (Sigma-Aldrich, Missouri, USA). Drug stock solutions were prepared in dimethyl sulfoxide (DMSO). The dermatophyte isolates were cultured on SDA/PDA for 21-30 days. In vitro testing of the susceptibility to Terbinafine allylamine was performed according to the Clinical and Laboratory Standards Institute (CLSI) document M38-A3 (CLSI, 2018). The drugs were analyzed at the final concentration in the range of 0.002-32 μg/ml for TRB.
(§2) Wild type strains for T rubrum (ATCC-22402) and T mentagrophytes (ATCC-28146) are obtained from ATCC.

[2] = tested on: T mentagrophytes (ATCC-28146); assay: as above; details: wild type strain ATCC-28146
Protocol: as §1, §2

Structure (SMILES): CN(C/C=C/C#CC(C)(C)C)Cc1cccc2ccccc12 [terbinafine]
- terbinafine susceptibility by culture [1]: susceptible
- terbinafine susceptibility by culture [2]: susceptible
